# Values joined by “and” are separate entries in the source; they are usually repeats but may differ in a detail not shown here. Identical values can stand only once.
# How the values were obtained:
# AT3-OVA mammary tumors = assay: AT3-OVA tumor growth in Lck-Cre;Ptpn2fl/fl mice; format: in vivo, mouse; design: key to Tumour growth: tumour size in mm^2 (two-dimensional caliper measurement); details: for Tumour growth: AT3-OVA tumours, individual mice (Figure 7A)
# Experimental: (§1) Male or female mice were injected subcutaneously with 5 × 10^5 MC38 tumor cells resuspended in 100 μl D-PBS into the flank. Alternatively, female mice were injected orthotopically with 5 × 10^5 AT3 or AT3-OVA or PTPN2-deleted AT3 or AT3-OVA tumor cells resuspended in 20 μl D-PBS into the fourth mammary fat pad. Tumor sizes were measured in two dimensions (mm^2) using electronic callipers two to three times per week as soon as tumors were palpable (20–25 mm^2).
# OT-I CD8+ T cells = assay: Intracellular IFNγ, TNF and Granzyme B in activated OT-I T cells; format: cell-based, mouse; design: Grzmb, single replicates / IFN TNF, single replicates / IFN TNF, column mean / Grzmb, difference between medians: Actual / Grzmb, difference between medians: Hodges-Lehmann / IFN TNF, group mean (Mean 2): unit not given here; details: for IFN TNF, group mean (Mean 2): N 6
# Experimental: Single-cell suspensions from spleens and lymph nodes were obtained as described previously. For the detection of intracellular cytokines and granzyme B, T cells were fixed and permeabilized with the BD Cytofix/Cytoperm kit according to the manufacturer’s instructions. Briefly, T cells were first surface stained with fluorophore-conjugated antibodies and then fixed followed by permeabilization on ice for 20 min. Fixed and permeabilized cells were stained for IFN-γ, TNF, and granzyme B for 45 min at room temperature. For the detection of intracellular FoxP3 the Foxp3/Transcription Factor Staining Buffer Set (eBioscience) was used according to the manufacturer’s instructions. Briefly, cells were fixed and permeabilized for 1 h on ice followed by intracellular staining at room temperature for 45 min. For the detection of serum cytokines, the BD CBA Mouse Inflammation Kit™ was used according to the manufacturers’ instructions.
# For the detection of intracellular IFNγ, TNF and Granzyme B, single-cell suspensions were obtained from lymph nodes of wild type (OT-I;Ptpn2^fl/fl) or PTPN2-deficient (OT-I;Lck-Cre;Ptpn2^fl/fl) mice and stimulated with 1 nM N4 peptide for 16 h and rested in complete T cell media supplemented with IL-2 (5 ng/ml) and IL-7 (0.2 ng/ml) for 2 days. […] Cells were then stained with fluorophore-conjugated antibodies to cell surface CD8 and intracellular IFNγ, TNF, and Granzyme B and analyzed by flow cytometry.
# PTPN2 = target: T1, PTPN2 (Homo sapiens, UniProt P17706); assay: Mode of inhibition and Ki, Lineweaver-Burk kinetic analysis with DiFMUP; format: biochemical
# T1 construct: PTPN2, residues 1-387; made in house; host or cells: E. coli BL21(DE3)
# T1 sequence (P17706 1-387 isoform P17706-2): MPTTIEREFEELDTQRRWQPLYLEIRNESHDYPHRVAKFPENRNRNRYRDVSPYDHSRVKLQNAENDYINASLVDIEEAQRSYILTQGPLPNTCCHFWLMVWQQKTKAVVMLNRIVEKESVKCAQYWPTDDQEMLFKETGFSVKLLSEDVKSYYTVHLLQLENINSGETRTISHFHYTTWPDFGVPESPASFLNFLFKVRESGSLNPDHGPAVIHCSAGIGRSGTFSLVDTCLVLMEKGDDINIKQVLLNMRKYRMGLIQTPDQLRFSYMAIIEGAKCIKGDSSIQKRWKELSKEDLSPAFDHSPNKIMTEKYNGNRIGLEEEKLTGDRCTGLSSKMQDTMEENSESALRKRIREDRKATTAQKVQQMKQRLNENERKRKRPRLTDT
# Experimental: To determine the mode of inhibition, the reactions were initiated by the addition of enzyme (final concentration for PTP1B and PTPN2 was 0.05 nM) to the reaction mixtures (0.2 ml) containing various concentrations of DiFMUP with different concentrations of the inhibitor. The reaction was allowed to proceed for 10 min and then quenched by the addition of 40 µl of a 160 µM solution of bpV(Phen) (Sigma-Aldrich, cat# SML0889). The fluorescence signal was measured using a CLARIOstar Plus Microplate Spectrophotometer (BMG Labtech) using excitation and emission wavelength of 340 nm and 450 nm, respectively. Data were fitted using Prism GraphPad 9.2.0. For selectivity studies, the inhibition assay for other PTPs were performed under the same conditions as used for PTP1B and PTPN2 except with different DiFMUP concentration corresponding to the Km of the PTP studied.
# AT3 mammary tumors = assay: AT3 mammary tumor growth in C57BL/6 mice; format: in vivo, mouse
# Experimental: as §1
# [1] = N4 1nM, 1 μM, Fig. 2B raw data, listed as CMP-182
smiles,measurement,setting,value
"CC(C)(O)CCOc1ccc2cc(O)c(N3CC(=O)NS3(=O)=O)c(F)c2c1 [Compound 182, 5-(1-Fluoro-3-hydroxy-7-(3-hydroxy-3-methylbutoxy)naphthalen-2-yl)−1,2,5-thiadiazolidin-3-one 1,1-dioxide]",growth of AT3-OVA tumors in Lck-Cre;Ptpn2fl/fl mice,"AT3-OVA mammary tumors; 10 mg/kg i.v., effects modest",additionally repressed the growth
same,Tumour growth,"AT3-OVA mammary tumors; Lck-Cre;Ptpn2fl/fl mice n=6, day 7 post injection, listed as CMP-182",39.6 and 38.4 and 28.91 and 24.91 and 14.4 and 25
same,Tumour growth,"AT3-OVA mammary tumors; Lck-Cre;Ptpn2fl/fl mice n=6, day 9 post injection, listed as CMP-182",40.2 and 33 and 27.36 and 24.44 and 20.64 and 28.6
same,Tumour growth,"AT3-OVA mammary tumors; Lck-Cre;Ptpn2fl/fl mice n=6, day 11 post injection, listed as CMP-182",40.8 and 26.46 and 22.5 and 19.89 and 25.38 and 17.64
same,Tumour growth,"AT3-OVA mammary tumors; Lck-Cre;Ptpn2fl/fl mice n=6, day 13 post injection, listed as CMP-182",44.8 and 30.25 and 16 and 20.25 and 29.64 and 25.38
same,Tumour growth,"AT3-OVA mammary tumors; Lck-Cre;Ptpn2fl/fl mice n=6, day 16 post injection, listed as CMP-182",44.16 and 40.92 and 16 and 18.9 and 20.68 and 31.11
same,Tumour growth,"AT3-OVA mammary tumors; Lck-Cre;Ptpn2fl/fl mice n=6, day 19 post injection, listed as CMP-182",38.94 and 25 and 15.2 and 25.92 and 33.48 and 38.34
same,Tumour growth,"AT3-OVA mammary tumors; Lck-Cre;Ptpn2fl/fl mice n=6, day 22 post injection, listed as CMP-182",38.94 and 28.08 and 25.08 and 22.36 and 21 and 35
same,Tumour weights,"AT3-OVA mammary tumors; Lck-Cre;Ptpn2fl/fl mice n=6, individual mice (Figure 7B), listed as CMP-182, in mg (unit assumed)",123 and 76 and 120 and 82 and 67 and 156
same,"Grzmb, difference between medians: Actual","OT-I CD8+ T cells; CMP-182 vs. DMSO, N4, Fig. 2B",672.5
same,"Grzmb, difference between medians: Hodges-Lehmann","OT-I CD8+ T cells; CMP-182 vs. DMSO, N4, Fig. 2B",741.5
same,"Grzmb, single replicates",OT-I CD8+ T cells; [1],3755 and 3056 and 3282 and 3899 and 3113 and 2884
same,"IFN TNF, single replicates",OT-I CD8+ T cells; [1],32.6 and 31.1 and 31 and 36.2 and 30.7 and 32.8
same,"IFN TNF, group mean (Mean 2)","OT-I CD8+ T cells; N4 1nM, Fig. 2B",32.4
same,"Grzmb, median of column B","OT-I CD8+ T cells; N4, n=6, Fig. 2B","3198, n=6"
same,"expression of Granzyme B, IFNγ and TNF",OT-I CD8+ T cells; OT-I CD8+ T cells,increased expression
same,"IFN TNF, single replicates","OT-I CD8+ T cells; Vehicle (no N4), 1 μM, Fig. 2B raw data, listed as CMP-182",0.038 and 0.03 and 0.037 and 0.066 and 0.023 (2×)
same,"IFN TNF, group mean (Mean 2)","OT-I CD8+ T cells; Vehicle (no N4), Fig. 2B",0.03617
same,"IFN TNF, column mean","OT-I CD8+ T cells; mean over Vehicle and N4 1nM rows, two-way ANOVA, Fig. 2B",16.22
same,mode of inhibition,PTPN2; Lineweaver-Burk,classic competitive inhibitor
same,Ki,"PTPN2; varying inhibitor and DiFMUP, steady state",0.26 ± 0.02 nM
same,"Tumour weights AT-3, individual mice","AT3 mammary tumors; 10 mg, Figure 4D, listed as CMP-182, in mg (unit assumed)",433 and 615 and 255 and 610 and 642 and 344
same,"Tumour growth AT-3, individual mice","AT3 mammary tumors; 10 mg, day 10 post injection, listed as CMP-182, in mm2",18.92 and 38.28 and 21.93 and 30.78 and 35.75 and 25.97
same,"Tumour growth AT-3, individual mice","AT3 mammary tumors; 10 mg, day 13 post injection, listed as CMP-182, in mm2",24.01 and 35.1 and 25.44 and 30.24 and 37.12 and 27.5
same,"Tumour growth AT-3, individual mice","AT3 mammary tumors; 10 mg, day 16 post injection, listed as CMP-182, in mm2",28.5 and 42.21 and 23.76 and 29.58 and 41.04 and 36.4
same,"Tumour growth AT-3, individual mice","AT3 mammary tumors; 10 mg, day 19 post injection, listed as CMP-182, in mm2",40.71 and 52.8 and 61.32 and 46.5 and 44.4 and 42.9
same,"Tumour growth AT-3, individual mice","AT3 mammary tumors; 10 mg, day 22 post injection, listed as CMP-182, in mm2",40.95 and 59.13 and 71.25 and 50.16 and 54.4 and 49.4
same,"Tumour growth AT-3, individual mice","AT3 mammary tumors; 10 mg, day 25 post injection, listed as CMP-182, in mm2",70.31 and 63.7 and 89.04 and 67.08 and 73.15 and 57.67
same,"Tumour growth AT-3, individual mice","AT3 mammary tumors; 10 mg, day 27 post injection, listed as CMP-182, in mm2",77.08 and 74.4 and 63 and 65.86 and 98.28 and 55.44
same,growth of orthotopic AT3 mammary tumors,AT3 mammary tumors; 10 mg/kg i.v. every 2 days,repressed the growth
same,"Tumour weights, median","AT3 mammary tumors; AT-3 tumours, CMP-182 10 mg, n=6, Figure 4D","521.5, n=6"
same,"Tumour size, predicted column mean over all time points","AT3 mammary tumors; AT-3 tumours, CMP-182 10 mg, n=6, Figure 4D, in mm2",48.13
same,"Tumour size, Mean 2","AT3 mammary tumors; AT-3 tumours, CMP-182 10 mg, n=6, time point 10, Figure 4D, in mm2",28.61
same,"Tumour size, Mean 2","AT3 mammary tumors; AT-3 tumours, CMP-182 10 mg, n=6, time point 13, Figure 4D, in mm2",29.9
same,"Tumour size, Mean 2","AT3 mammary tumors; AT-3 tumours, CMP-182 10 mg, n=6, time point 16, Figure 4D, in mm2",33.58
same,"Tumour size, Mean 2","AT3 mammary tumors; AT-3 tumours, CMP-182 10 mg, n=6, time point 19, Figure 4D, in mm2",48.11
same,"Tumour size, Mean 2","AT3 mammary tumors; AT-3 tumours, CMP-182 10 mg, n=6, time point 22, Figure 4D, in mm2",54.22
same,"Tumour size, Mean 2","AT3 mammary tumors; AT-3 tumours, CMP-182 10 mg, n=6, time point 25, Figure 4D, in mm2",70.16
same,"Tumour size, Mean 2","AT3 mammary tumors; AT-3 tumours, CMP-182 10 mg, n=6, time point 27, Figure 4D, in mm2",72.34

# — article PMC10374545, “A small molecule inhibitor of PTP1B and PTPN2 enhances T cell anti-tumor immunity” (Nature Communications, 2023)
